Assays:
[1] = test system: rat retinal ganglion cells; test: Menadione-induced retinal ganglion cell death, antibody/K02288 treatment (Example 1); type: cell-based; details: 6 μM menadione, 18 hours, vs Normal IgG treatment group, n=3, FIG. 1C
Procedure: The retina was taken out from each of 7 days-old SD rats (13 rats) (Japan SLC Co., Ltd.) and retinal cells were dispersed by Dissociation Kit-Postnatal Neurons (Miltenyi Biotec). Thereafter, retinal ganglion cells (RGC) were isolated from other retinal cells by use of Retinal Ganglion Cell Isolation Kits (Miltenyi Biotec).
The retinal ganglion cells were suspended in RGC culture medium, seeded in the wells of a 96-well plate at a density of 2×10^4 cells/well and cultured at 37° C. under a 5% CO2 atmosphere for 24 hours. Twenty four hours later, the medium was removed. To a medium for a menadione reaction, 6 μM menadione, Normal rabbit IgG (Santa Cruz Biotechnology, Inc.), an anti-ALK3 antibody (Anti-BMPR1A antibody, Abcam plc.), an anti-ALK4 antibody (anti-Activin A receptor Type IB antibody, Abcam plc.) and an ALK3 inhibitor, i.e., K02288 (Tocris Bioscience) (PLOS ONE 2013 8 (4) e62721) were added in accordance with the constitutions of individual groups (described later) and incubation was performed at 37° C. for 18 hours. […] Three photographs per well were taken by IncuCyte S3 live cell analysis system (Essen Bioscience) and analyzed. Data was calculated as the ratio of the number of survival cells relative to a total number of dead cells and survival cells. […]

[2] = test system: rat retinal ganglion cells; test: Menadione-induced retinal ganglion cell death, low-molecular ALK3 inhibitors (Example 2); type: cell-based; details: 6 μM menadione; for dose dependence of cell death inhibitory effect: 100 nM to 10 μM K02288, 100 nM to 1 μM LDN-193189; for cell death inhibitory effect compared to the group treated with menadione alone / protection of cells from retinal ganglion cell death induced by menadione: 18 hours
Procedure: Rat retinal ganglion cells were isolated in the same manner as in Example 1. In the experimental system (FIG. 2A) of K02288 treatment, three rats were used; whereas, in the experimental system (FIG. 2B) of LDN-193189 treatment, two rats were used.
Retinal ganglion cells were suspended in RGC culture medium and seeded in the wells of a 96-well plate at a density of 1×10^4 cells/well and cultured at 37° C. under a 5% CO2 atmosphere for 24 hours. Twenty four hours later, the medium was removed. To a medium for a menadione reaction, 6 μM menadione and ALK3 inhibitors, i.e., K02288 (Tocris Bioscience) or LDN-193189 (MedChemExpress) (PLOS ONE 2013 8 (4) e62721) were added in accordance with the constitutions of individual groups. DMSO was added to a non K02288 treatment group or a non LDN-193189 treatment group, (a group treated with menadione alone). The cells were incubated at 37° C. for 18 hours and thereafter stained by use of LIVE/DEAD Viability/Cytotoxicity Kit (Thermo Fisher Scientific Inc.). Three photographs per well were taken by use of IncuCyte S3 live cell analysis system (Essen Bioscience) and analyzed. Data was calculated as the ratio of the number of survival cells relative to a total number of dead cells and survival cells. The RGC culture medium and medium for a menadione reaction used herein are the same as those used in Example 1.
Constitutions of groups (a group treated with K02288: n=8, a group treated with LDN-193189: n=6)
Control group: menadione was absent
A group treated with menadione alone: menadione and DMSO were added
A group treated with K02288 (3 groups: 100 nM, 1 μM, 10 μM): menadione and K02288 were added
A group treated with LDN-193189 (2 groups: 100 nM, 1 μM): menadione and LDN-193189 were added.

retinal ganglion cells = details: mouse retina, Non Patent Literature 1; cited from earlier work
[3] = 1 μM test compound, FIGS. 2A and 2B

Molecule | suppression of retinal ganglion cell death (ratio of survival cells to total cells) [1] | dose dependence of cell death inhibitory effect [2] | cell death inhibitory effect compared to the group treated with menadione alone [2, 3] | protection of cells from retinal ganglion cell death induced by menadione [2] | cell death inhibitory effect compared to the group treated with menadione alone ([2]; 10 μM test compound, FIG. 2A) | effect on retinal ganglion cell death induced by NMDA (retinal ganglion cells)
COc1cc(-c2cc(-c3cccc(O)c3)cnc2N)cc(OC)c1OC [K02288, 3-[6-amino-5-(3,4,5-trimethoxyphenyl)-3-pyridinyl]-phenol] | cell death was significantly suppressed | cell death inhibitory effect in a dose-dependent manner | significant cell death inhibitory effect | exerted an effect to protect cells | significant cell death inhibitory effect | 
c1ccc2c(-c3cnn4cc(-c5ccc(N6CCNCC6)cc5)cnc34)ccnc2c1 [LDN-193189, 4-[6-(4-piperazin-1-yl-phenyl)-pyrazolo[1,5-α]pyrimidin-3-yl]-quinoline] |  | cell death inhibitory effect in a dose-dependent manner | significant cell death inhibitory effect | exerted an effect to protect cells |  | 
BMP4: a kind of BMP (bone morphogenetic protein) (protein, UniProt P12644 293-408, looked up) Bone morphogenetic protein 4: SPKHHSQRARKKNKNCRRHSLYVDFSDVGWNDWIVAPPGYQAFYCHGDCPFPLADHLNSTNHAIVQTLVNSVNSSIPKACCVPTELSAISMLYLDEYDKVVLKNYQEMVVEGCGCR |  |  |  |  |  | suppressed
Noggin: a BMP inhibitor (naturally occurring protein) (protein, UniProt Q13253 28-232, looked up) Noggin: QHYLHIRPAPSDNLPLVDLIEHPDPIFDPKEKDLNETLLRSLLGGHYDPGFMATSPPEDRPGGGGGAAGGAEDLAELDQLLRQRPSGAMPSEIKGLEFSEGLAQGKKQRLSKKLRRKLQMWLWSQTFCPVLYAWNDLGSRFWPRYVKVGSCFSKRSCSVPEGMVCKPSKSVHLTVLRWRCQRRGGQRCGWIPIQYPIISECKCSC |  |  |  |  |  | accelerated

— US12427147B2, “Retinal ganglion cell death inhibitor” (SENJU PHARMACEUTICAL CO., LTD., priority 2018, dated 2025)
